From US20040023841A1, “Combinatorial method for rapid screening of drug delivery formulations” (priority 2003, published 2004) come the findings set out here.

The nature of data set [1]: Loss of drug from donor hole of Teflon disc placed on stratum corneum. The data set is classed as in vitro ADME. The conditions noted are these: drug in PBS, 2 mm hole, human SC, 24 hours contact, liquid scintillation counting. On the procedure: (§1) The following experiments were performed to assess the usefulness of a method, which determines the loss of a test substance from a formulation over time. Experiments were performed to assess whether this method can be used for estimation of skin permeability to drugs. For these studies, phosphate buffered saline was used as a model formulation. […] Ten holes were drilled into the disc and each hole was about 2 mm wide. The disc was then placed on the SC prepared from human skin. Solutions of nine different drugs in PBS were placed in various holes. The concentration of drugs in the solutions were measured at time zero. The drugs were allowed to remain in contact with the skin for 24 hours. Samples were taken from the holes at the end of 24 hours and then analyzed using a liquid scintillation counter. The amount of drug lost from the donor hole was calculated. Permeability measurements of the same drugs were performed using conventional methods that use macroscopic diffusion cells.

The nature of data set [2]: Permeability measured by traditional experiments (macroscopic diffusion cells). The data set is classed as in vitro ADME. As to the method: as §1
The nature of data set [3]: Conductivity enhancement of skin, 10x10 High Throughput array. In kind it is in vitro ADME, pig. The conditions noted are these: 10x10 array, 0-2% (w/v) in PBS, up to 25 hrs, n=4. On the procedure:
This array is built as a pattern of 10×10 matrix. This corresponds to 100 test wells, each well 3 mm in diameter. The formulations to be tested are filled in the donor compartments. Each formulation is filled in 4 wells and each well can hold about 85 μL of the test formulation. Two 22 G 1½ needles are used as electrodes to measure current across the skin. One needle is stuck into the dermis and acts as the common electrode while the other needle is sequentially placed in each well to measure current. Current measurements are made across the skin periodically over a span of 25 hrs. […] The conductivity enhancement for a given formulation at time ‘t’ is then calculated as [formula] where It is the current across the skin at time ‘t’ and I0 is the current across the skin at time 0. […] The error bars correspond to the standard deviations. (n=4).

Data set [4] is described as follows: Transport enhancement of radiolabelled mannitol into skin, 10x10 High Throughput array. The data set is classed as in vitro ADME, pig. The following applies: 10x10 array, 0-2% (w/v) in PBS, 7 hrs. As to the method: Radiolabelled mannitol was added to all formulations prepared in PBS at a concentration of 10 μCi/mL. The donor compartments were filled with these formulations with each formulation filled in 4 wells. The skin was then incubated for 7 hrs. The solutions from the donor compartment were removed at the end of incubation period. The skin was then gently rinsed to free any mannitol that could be sticking to the surface of the skin. The skin was then cut and dissolved in 0.5 M Solvable, a tissue and gel solubilizer from Packard Chemicals, at 60° C. overnight. […] The transport enhancement at different test formulations is then calculated as [formula] where CF is the radiation count for a particular test formulation and CC is the radiation count for the control i.e. PBS alone without any enhancer.

Data set [5] is described as follows: Conductivity enhancement of skin, 5x5 High Throughput array. The data set is classed as in vitro ADME, pig. The conditions noted are these: 5x5 array, 0-2% (w/v) in PBS, up to 25 hrs. From the text: This array is built as a pattern of a 5×5 matrix. This corresponds to 25 test wells, each well 7.5 mm in diameter. It consists of two polycarbonate plates each 0.5 inches thick. The top plate (donor plate) has 25 through holes (wells), diameter 7.5 mm, drilled in it, each of which acts as an isolated donor chamber similar to the donor chamber in the Franz diffusion cells. The bottom plate (receiver plate) also has holes (wells) drilled in a similar pattern as the donor plate and simulates the receiver compartment of the diffusion cells. All wells are isolated from each other for all practical purposes and each well acts like an individual diffusion cell. The skin is placed between the donor and receiver plate and the plate assembly is clamped using four screws as shown in the figure.
Screening of the formulations is performed using pigskin. The wells in the receiver plate are filled with PBS. The skin is placed on the receiver plate with the stratum corneum (SC) facing the donor plate. The donor plate is then placed on the skin and the entire assembly is clamped tightly using four screws. […]
The formulations to be tested are filled in the donor compartments. […] The current, measured at 100 Hz and 143 mVpp, varied between 1 μA at time 0 to 25-30 μA at time 25 hrs.
The conductivity enhancements at time t″ is then calculated as [formula] […]

Data set [6] is described as follows: Transport enhancement of radiolabelled mannitol into skin, 5x5 High Throughput array. In kind it is in vitro ADME, pig. The following applies: 5x5 array, 0-2% (w/v) in PBS, 7 hrs. As to the method:
Screening of the formulations is performed using pigskin. The wells in the receiver plate are filled with PBS. The skin is placed on the receiver plate with the stratum corneum (SC) facing the donor plate. The donor plate is then placed on the skin and the entire assembly is clamped tightly using four screws. A mild vacuum is then applied to remove any excess PBS that may be pushed in to the wells in the receiver plate. Radiolabelled mannitol was added to all formulations prepared in PBS at a concentration of 10 μCi/mL. The donor compartments were filled with these formulations each formulation was filled in 1 well. The skin was then incubated for 7 hrs. The solutions from the donor compartment were removed at the end of incubation period. The skin was then gently rinsed to free any mannitol that could be sticking to the surface of the skin. The skin was then cut and dissolved in 0.5 M Solvable, a tissue and gel solubilizer from Packard Chemicals at 60° C. overnight. […] The transport enhancement at different test formulations is then calculated as [formula] where CF is the radiation count for a particular test formulation and CC is the radiation count for the control i.e. PBS alone without any enhancer.

A short description of data set [7]: Conductivity enhancement of skin, Franz diffusion cells. In kind it is in vitro ADME, pig. The conditions noted are these: Franz diffusion cell, 0-2% in PBS, 24 hours. On the procedure:
A small stir bar and an Ag/AgCl disk electrode ([…] In-vivo Metrics) were added to the receiver chamber. In addition, the receiver chamber was filled with PBS. Pigskin was thawed and was mounted on the diffusion cell with the epidermis side facing up. The donor and the receiver compartments were clamped making sure there were no bubbles in the receiver chamber. Before each experiment, structural integrity of the skin was confirmed by measuring its conductivity. Skin samples with a resistivity less than 20 Kohm-cm^2 were assumed to be defective and not used. Skin conductivity was measured throughout the experiment to assess the effect of the formulation on skin structure. […] Each formulation was prepared in PBS. Current across the skin was measured over a period of 24 hours. The enhancement of skin conductivity was calculated as [formula] where It is the current across skin at time t, I0 being the current across skin at time 0.

A short description of data set [8]: Transport enhancement of radiolabeled mannitol into skin, Franz diffusion cells. The conditions noted are these: Franz diffusion cell, 0-2% (w/v) in PBS, 7 hrs. In kind it is in vitro ADME, pig. On the procedure:
The skin was incubated in the cells for 7 hrs. At the end of 7 hrs the skin was removed from the cell and dissolved in 0.5M Solvable, a gel and tissue solubilizer from Packard Chemicals, at 60° C. overnight. […] The enhancement of transdermal mannitol transport due to the formulations was calculated using the equation, E^T=CF/CC, where CF is the radiation count for a particular formulation and CC is the radiation count for the control which in this case is simply PBS with radiolabeled mannitol but no surfactant.

Molecules are shown by their SMILES.

As to `c1ccc2ccccc2c1` [Napthalene], in data set [1], the “% Drug Lost from the Hole” value was found to be 47%.
As for `CC(=O)[C@H]1CC[C@H]2[C@@H]3CCC4=CC(=O)CC[C@]4(C)[C@H]3CC[C@]12C` [Progesterone], the “% Drug Lost from the Hole” value in data set [1] came to 44%. Further, in data set [2], the Papp is 5.56 ×10⁻⁶ cm/s.
As for `C[C@]12CCC(=O)C=C1CC[C@@H]1[C@@H]2[C@@H](O)C[C@]2(C=O)[C@@H](C(=O)CO)CC[C@@H]12` [Aldosterone], in data set [1], the “% Drug Lost from the Hole” value is 9%. Besides, in data set [2], the Papp was 0.00833 ×10⁻⁶ cm/s.
Turning to `CCCCCCO` [Hexanol], the “% Drug Lost from the Hole” value in data set [1] was 31%.
In the case of `CCCCCCCCCCCCOS(=O)(=O)[O-].[Na+]` [SLS, Sodium Lauryl Sulfate], the “Conductivity enhancement (It/I0)” value in data set [3] was “increases with increasing SLS or TDAB concentration and reaches a maximum after which it starts decreasing”; in data set [5] it was “increases as a function of the SLS or TDAB concentration and reaches a maximum”; in data set [7], “increases as a function of the SLS or TDAB concentration and reaches a maximum”. Moreover, the “Transport enhancement (amount of mannitol transported, CF/CC)” value in data set [4], in data set [6] and in data set [8] was “increases monotonously as a function of the surfactant concentration” throughout.
For the compound `CCCCCCCCCCCCCCCCCCO` [Octadecanol], the “% Drug Lost from the Hole” value in data set [1] turned out to be 77%. The same compound showed a Papp in data set [2] of 25 ×10⁻⁶ cm/s.
Regarding `C[C@]12CC[C@H]3[C@@H](CCC4=CC(=O)CC[C@@]43C)[C@@H]1CC[C@@H]2O` [Testosterone], the “% Drug Lost from the Hole” value in data set [1] is 24%.
For the compound `CCCCCCCCO` [Octanol], the “% Drug Lost from the Hole” value in data set [1] was determined as 47%. For the same compound, the Papp in data set [2] was 19.4 ×10⁻⁶ cm/s.
